Experimental data as given in the supplement of paper PMC12370961.

How the values were obtained:
Experiment in all cases: differential drug sensitivity score (dDSS) relative to sarcoma reference cohort mean DSS (DSS units (0-100 scale difference)); higher = more selective sensitivity than reference sarcomas
Conditions in all cases: exposure time: 72 h; concentration range: 10-10000 nM
[1] = test system: ES-ZH016 direct (Ewing sarcoma cells right after isolation)
Description: (§1)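 Drug response profiling of patient-derived Ewing sarcoma and CIC::DUX4 sarcoma tumoroid models (or cells tested directly after isolation from the tumor, 'direct'). The DSS is the normalised AUC (0-100); dDSS is the sample DSS minus the mean DSS of a 34-sarcoma reference cohort profiled in the same lab.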

[2] = test system: ES-ZH016 (patient-derived Ewing sarcoma tumoroid)
Description: as §1

[3] = test system: ES-ZH001 (patient-derived Ewing sarcoma tumoroid)
Description: as §1

[4] = test system: ES-ZH009 (patient-derived Ewing sarcoma tumoroid)
Description: as §1

[5] = test system: ES-ZH007 (patient-derived Ewing sarcoma tumoroid)
Description: as §1

[6] = test system: CDS-ZH003 (patient-derived CIC-DUX4 sarcoma tumoroid)
Description: as §1

[7] = test system: CDS-ZH002 (patient-derived CIC-DUX4 sarcoma tumoroid)
Description: as §1

[8] = test system: ES-ZH002 (patient-derived Ewing sarcoma tumoroid)
Description: as §1

[9] = test system: CDS-ZH002 direct (CIC-DUX4 sarcoma cells right after isolation)
Description: as §1

[10] = test system: CDS-ZH001-2 (patient-derived CIC-DUX4 sarcoma tumoroid)
Description: as §1

[11] = test system: ES-ZH004 (patient-derived Ewing sarcoma tumoroid)
Description: as §1

[12] = test system: CDS-ZH001 (patient-derived CIC-DUX4 sarcoma tumoroid)
Description: as §1

[13] = test system: ES-ZH008 (patient-derived Ewing sarcoma tumoroid)
Description: as §1

SMILES | differential drug sensitivity score [1] | differential drug sensitivity score [2] | differential drug sensitivity score [3] | differential drug sensitivity score [4] | differential drug sensitivity score [5] | differential drug sensitivity score [6] | differential drug sensitivity score [7] | differential drug sensitivity score [8] | differential drug sensitivity score [9] | differential drug sensitivity score [10] | differential drug sensitivity score [11] | differential drug sensitivity score [12] | differential drug sensitivity score [13]
CC1(C)CCC(CN2CCN(c3ccc(C(=O)NS(=O)(=O)c4ccc(NCC5CCOCC5)c([N+](=O)[O-])c4)c(Oc4cnc5[nH]ccc5c4)c3)CC2)=C(c2ccc(Cl)cc2)C1 [Venetoclax] | 5.9 | -2.6 | 6.9 | -1.6 | -4.7 | -9.4 | -4.7 | 7.9 | -3.5 | 1.4 | 6.1 | 3.9 | 7.3
Nc1cccc2c1C(=O)N(C1CCC(=O)NC1=O)C2=O (stereo not drawn) [Pomalidomide] | -1.2 | -1.4 | -1.1 | -1.3 | -1.2 | -1.3 | -1.4 | 6.4 | -1.4 | -1.4 | 0.4 | -0.6 | 3
CCN1CCN(c2ccc(Nc3cc(N(C)C(=O)Nc4c(Cl)c(OC)cc(OC)c4Cl)ncn3)cc2)CC1 [Infigratinib] | 1.6 | -4 | -4 | -0.1 | -3.2 | -1.3 | -6.1 | 2 | 2.3 | -1.1 | -3.9 | -1.9 | -6.1
Nc1nc(F)nc2c1ncn2[C@@H]1O[C@H](CO)[C@@H](O)[C@@H]1O [Fludarabine] | 11.5 | 1.4 | 4.6 | -3.2 | 3.9 | -2.8 | -0.8 | 8.7 | 2.5 | 3.9 | 5.3 | -3.2 | -1.1
Nc1cc(C(F)(F)F)c(-c2cc(N3CCOCC3)nc(N3CCOCC3)n2)cn1 [Buparlisib] | 0.6 | -0.6 | 1.5 | 2.5 | -0.1 | 6.9 | -2.2 | 7.6 | -2.5 | 2.9 | -2.2 | 3.3 | 4.6
O=P1(N(CCCl)CCCl)NCCCO1 (stereo not drawn) [Cyclophosphamide] | -0.3 | -0.3 | -0.3 | -0.3 | -0.3 | -0.3 | -0.3 | 3.8 | -0.3 | -0.3 | -0.3 | 1.7 | -0.3
CC(C)(C)Cn1c(N)nc2ccc(-c3[nH]c(C(C)(C)C)nc3-c3ccc(F)cc3)nc21 [Ralimetinib] | – | – | -5.3 | -3.2 | -4.3 | 13.4 | 4.9 | 0 | – | 6.3 | -2.2 | -2.9 | -4.4
Cc1c2oc3c(C)ccc(C(=O)N[C@@H]4C(=O)N[C@H](C(C)C)C(=O)N5CCC[C@H]5C(=O)N(C)CC(=O)N(C)[C@@H](C(C)C)C(=O)O[C@@H]4C)c3nc-2c(C(=O)N[C@@H]2C(=O)N[C@H](C(C)C)C(=O)N3CCC[C@H]3C(=O)N(C)CC(=O)N(C)[C@@H](C(C)C)C(=O)O[C@@H]2C)c(N)c1=O [Dactinomycin] | 9.9 | 11.8 | 9.7 | 12.8 | 8.7 | 12.7 | 11.4 | 11.1 | 11.9 | 11.9 | 7.5 | 12.1 | 12.5
C=CC(=O)N1CCN(c2nc(=O)n(-c3c(C)ccnc3C(C)C)c3nc(-c4c(O)cccc4F)c(F)cc23)[C@@H](C)C1 [Sotorasib] | 6.3 | 2.8 | 4.7 | 5.5 | -3.1 | -4.3 | -0.1 | 10.6 | 1.9 | 0.9 | 5.9 | 2.7 | 4.1
Cc1ccc(NC(=O)c2ccc(CN3CCN(C)CC3)cc2)cc1Nc1nccc(-c2cccnc2)n1 [Imatinib] | 1.6 | -3.3 | -2.9 | -3.3 | -1.3 | 12.4 | -1.5 | 3.2 | -1.3 | -0.8 | 0.7 | 0.4 | 0.1
Nc1ncn([C@H]2C[C@H](O)[C@@H](CO)O2)c(=O)n1 [Decitabine] | 13.3 | 4.4 | 5.8 | 1.3 | 5.1 | -7 | -1.8 | 21.4 | 2.2 | 1.7 | 6.4 | 0.1 | 5.7
CC(C)(O)CNc1nc(Nc2ccnc(C(F)(F)F)c2)nc(-c2cccc(C(F)(F)F)n2)n1 [Enasidenib] | -1.3 | -1.3 | -1.3 | -1.3 | -1 | -1.3 | -1.3 | -1.3 | -1.3 | -1.3 | -0.7 | -1.3 | -1.3
CC[C@]1(O)C[C@@H]2CN(CCc3c([nH]c4ccccc34)[C@@](C(=O)OC)(c3cc4c(cc3OC)N(C)[C@H]3[C@@](O)(C(=O)OC)[C@H](OC(C)=O)[C@]5(CC)C=CCN6CC[C@]43[C@@H]65)C2)C1 [Vinblastine] | 10.2 | 16.2 | 22.3 | 23.7 | 13.2 | -9.2 | 13.2 | 22.2 | 8.4 | 2.2 | 12.3 | 9.1 | 12.7
C[C@H]1Oc2cc(cnc2N)-c2c(nn(C)c2C#N)CN(C)C(=O)c2ccc(F)cc21 [Lorlatinib] | -1.1 | 1.2 | -1.4 | -2.4 | -0.9 | 1.5 | -1.4 | 5.9 | 4.2 | 6.9 | -4.3 | 11.6 | -3.5
CCc1nc(C(N)=O)c(Nc2ccc(N3CCC(N4CCN(C)CC4)CC3)c(OC)c2)nc1NC1CCOCC1 [Gilteritinib] | 9.4 | 0.8 | 1.1 | 10.1 | 4.2 | 10.4 | -1.4 | 16 | 1.6 | 8 | 4.2 | 7.4 | 10.2
Cn1cc(-c2cnn3c(N)c(Br)c([C@@H]4CCCNC4)nc23)cn1 [MK-8776] | 6.3 | -1.8 | 4.7 | 6.8 | 1.8 | -6.8 | -1.5 | 8.9 | 1.1 | 7.1 | -2.9 | 4.4 | 8.5
CCN(CC)CCCC(C)Nc1nc(C)cc(Nc2ccc3nc(C)cc(N)c3c2)n1 (stereo not drawn) | -1 | -1 | -1 | -0.9 | 0.4 | -1 | 1.1 | 0.7 | 2.8 | 9.7 | 1.1 | -0.8 | -1
CC(C)CCN1c2nc(Nc3cc(F)c(O)c(F)c3)ncc2N(C)C(=O)C1C (stereo not drawn) [BI-D1870] | 7.3 | 2.7 | 2.9 | 8.6 | 0.6 | 4.1 | -2.3 | 3.1 | -1.7 | -0.8 | 3 | 1.3 | 5.6
NC(=O)C1CCCc2c1[nH]c1ccc(Cl)cc21 (stereo not drawn) [Selisistat] | -1.3 | -0.9 | -1.4 | -0.7 | -1.4 | -2 | -0.9 | -1 | -1.4 | -1.3 | -1.3 | -0.5 | 8.9
CN1CCC(CNc2ccc3ncc(-c4cccc(OC(F)(F)F)c4)n3n2)CC1 [SGI1776] | -0.3 | 0.8 | 0.3 | 0.3 | 0.5 | 4.4 | 0.1 | 6.6 | -0.4 | 3.7 | 1.6 | 3.5 | 2.1
Cc1cc(Nc2ncc(Cl)c(Nc3ccccc3S(=O)(=O)C(C)C)n2)c(OC(C)C)cc1C1CCNCC1 [Ceritinib] | 3.7 | 3.4 | 2.9 | 2.1 | 3.8 | 0.3 | 0.4 | 11.7 | -0.1 | 7 | 3.5 | 4.9 | 4.9
COc1ccc(-c2nc(N3CCOCC3)c3sc(CN(C)c4ncc(C(=O)NO)cn4)cc3n2)cn1 [Fimepinostat] | 8.8 | 0.5 | 5.9 | 6.1 | 10.6 | -0.5 | -3.2 | 6 | – | 5.7 | 8.6 | 1.5 | 9.2
CCn1cc(C(=O)O)c(=O)c2c(N)c(F)c(NC3CCCCC3)cc21 | 7.2 | -0.9 | -0.9 | 3.3 | -0.3 | -0.9 | -0.9 | -0.9 | – | -0.9 | -0.9 | -0.9 | -0.9
CCN(CC)CCCC(C)Nc1ccnc2cc(Cl)ccc12 (stereo not drawn) [Chloroquine] | – | – | -3.8 | -2 | 2.8 | -3.8 | 5.3 | -0.6 | – | 4.7 | 3 | 0.3 | 1.4
N.N.[Cl][Pt][Cl] [Cisplatin] | – | – | -1.1 | -1.4 | 3.9 | – | -0.5 | 7.1 | -2.4 | – | 5.8 | – | 2.9
O=C(O)C1(C(=O)O)CCC1.[NH2-].[NH2-].[Pt+2] [Carboplatin] | 8.6 | 1.7 | -0.3 | -1.6 | -0.9 | -1.6 | -1.6 | 2.2 | -1.2 | -1.6 | 0.8 | – | 2.5
Cc1c(-c2ccc(N3CCc4cccc(C(=O)Nc5nc6ccccc6s5)c4C3)nc2C(=O)O)cnn1CC12CC3CC(CC(C3)C1)C2 | 7.8 | -9.5 | – | 10.9 | – | – | – | – | 2.8 | – | – | – | –
